From article PMC12040169 (PLOS Biology, 2025)

Assay: in vitro
Conditions: human, hela cells, % viability

Row | Compound | viability at 28.5 h, 10 µM [%]
1 | Cc1noc(CN2CCN(CCc3ccc4c(c3)CCO4)CC2)n1 [CBK305208] | 102
2 | O=C1NC2(CCC2)C(=O)N1Cc1coc(-c2cccs2)n1 [CBK305209] | 95.9
3 | Cc1cc(F)ccc1S(=O)(=O)NCC1CC(=O)Nc2ccccc21 (stereo not shown) [CBK305210] | 86.5
4 | O=C(NCC1(O)CCSCC1)c1ccc2ccccc2n1 [CBK305211] | 85
5 | Cc1nc(S(=O)(=O)CCn2cccn2)n(C2CCCCC2)c1C [CBK305217] | 102
6 | CCCC(=O)Nc1ccc(OCc2ncc(C(C)(C)C)o2)c(C(C)=O)c1 [CBK305218] | 86.2
7 | Cn1cc(C(O)CNC(=O)NCCc2csc3ccccc23)cn1 (stereo not shown) [CBK305219] | 95.2
8 | CCN(CC(=O)NCc1ccc(F)cc1)C(=O)c1cc(C#N)c[nH]1 [CBK305221] | 87.9
9 | CC(C)c1n[nH]c(C2CN(Cc3nc4c(F)cccc4[nH]3)CCO2)n1 (stereo not shown) [CBK305225] | 98.8
10 | CN(CC1CC1)C(=O)Cn1cnc2c(F)cc(Br)cc2c1=O [CBK305227] | 87.2
11 | O=C(Cn1cnc2c(F)cc(Br)cc2c1=O)N1CCOC2CCCCC21 (stereo not shown) [CBK305229] | 89.2
12 | CC(NC(=O)N1CCSCC1)c1cccc(N2CCCC2)c1 (stereo not shown) [CBK305230] | 92
13 | Cc1cccn2c(=O)cc(CN3CCn4c(nnc4C4CC4)C3)nc12 [CBK305232] | 102
14 | N#Cc1ccc(Cn2cnc(NC(=O)c3cnccn3)n2)cc1 [CBK305233] | 88.5
15 | CC(C)c1cccc(-n2cc(O)c(C(=O)NCCC(=O)N(C)C)n2)c1 [CBK305234] | 86.5
16 | CCNC(=O)C1(NC(=O)c2cn3ccccc3n2)CCCCC1 [CBK305240] | 102
17 | O=C(NCc1cc(Br)ccc1F)C1CC(=O)N(Cc2ccccn2)C1 (stereo not shown) [CBK305242] | 85.7
18 | Cc1cc(C(=O)N2CCCC2c2ccc[nH]2)c2c(C)noc2n1 (stereo not shown) [CBK305245] | 91.5
19 | O=C(Nc1ncccc1O)c1cnc2c(cnn2C2CCCC2)c1 [CBK305246] | 99.9
20 | CCOC(=O)C(CNC(=O)c1cnc(C)c(Br)c1Cl)Cc1ccccc1 (stereo not shown) [CBK305247] | 99.6
21 | Cc1nc(CC(=O)Nc2ccc(N3CCOCC3)cn2)cs1 [CBK305251] | 91

Row | Compound | viability at 28.5 h, 10 µM [%]
22 | CS(=O)(=O)NC1CCN(C2CCc3c(Cl)cccc32)CC1 (stereo not shown) [CBK305252] | 93.7
23 | Cc1cc(C)n(-c2ccc(N3CCC4(CC3)OCCO4)nn2)n1 [CBK305255] | 97.8
24 | O=C(NCCCN1CCc2ccccc2C1)C1CC1c1ccco1 (stereo not shown) [CBK305257] | 91.8
25 | CC(NC(=O)CCc1cscn1)c1nc(-c2ccncc2)cs1 (stereo not shown) [CBK305260] | 77.6
26 | Cc1ccc(N2CCCN(C(=O)COc3ccccc3F)CC2)nn1 [CBK305261] | 99.4
27 | Cc1ccn(-c2ccc(N3CCOC4(CCCC4)C3)nn2)n1 [CBK305262] | 87.9
28 | CC(C)(C)OC(=O)N1CCCN(Cc2nnc(-c3ccco3)o2)CC1 [CBK305271] | 103
29 | Cc1cc(C)n2nc(CCCOC(=O)c3ccn(C(C)C)n3)nc2n1 [CBK305272] | 112
30 | CC(=O)NC(Cc1c[nH]c2ccccc12)C(=O)N(C)Cc1cnn(C)c1 (stereo not shown) [CBK305274] | 84.3
31 | CCN(CCO)C(=O)NC1CCCc2c1cnn2Cc1ccccc1 (stereo not shown) [CBK305277] | 91.5
32 | Cn1ncnc1CNc1ccc(S(=O)(=O)N2CCCCCC2)cc1 [CBK305278] | 90.1
33 | O=C(NCCc1ccccn1)N1CCCN(Cc2cccs2)CC1 [CBK305283] | 80.5
34 | Cc1nc(CC(=O)OC(C)C(=O)N2CCCc3ccccc32)cs1 (stereo not shown) [CBK305285] | 91.6
35 | COCCn1cc(C(=O)N2CCCC2c2ccncc2)c2ccccc21 (stereo not shown) [CBK305286] | 91.8
36 | COCCn1cc(C(=O)N2CCN3CCCCC3C2)c2ccccc21 (stereo not shown) [CBK305287] | 107
37 | CCN(CC(C)C#N)C(=O)c1nnn(-c2ccc3ncccc3c2)c1C (stereo not shown) [CBK305292] | 86.3
38 | CCCc1cc(C(=O)N2CCCN(Cc3cnn(CC)c3)CC2)[nH]n1 [CBK305293] | 92.3
39 | O=C(c1cccs1)N1CCCN(Cc2cn3ccccc3n2)CC1 [CBK305304] | 102
40 | CN(Cc1nnc(C2CC2)n1C)C1CCN(CCCc2cn[nH]c2)C1 (stereo not shown) [CBK305305] | 85.2
41 | Cc1ccccc1Nc1nc(N)nc(CN(CCC#N)CC2CCC2)n1 [CBK305308] | 89.3
42 | CC(C)(C)OC(=O)N1CCCN(Cc2nc(-c3cccnc3)no2)CC1 [CBK305309] | 97.2

Row | Compound | viability at 28.5 h, 10 µM [%]
43 | CC(c1ccc(F)c(F)c1)N(C)C(=O)Cn1cnnc1[S+](C)[O-] (stereo not shown) [CBK305311] | 105
44 | CC(C)NC(=O)Nc1ccc(C(=O)N(CCC#N)C(C)C2CC2)cc1 (stereo not shown) [CBK305312] | 110
45 | Cc1cc(C)c(C(=O)N2CCN(CCNC(=O)C3CCCC3)CC2)[nH]1 [CBK305315] | 89.5
46 | CCn1ncc2c1CCCC2NC1CCCN(c2cnn(C)c2)C1=O (stereo not shown) [CBK305316] | 88.7
47 | Cc1nc(C2CN(Cc3c(Cl)ccc4cccnc34)CCO2)no1 (stereo not shown) [CBK305317] | 82
48 | CC(C(=O)NCCC1=CCCCC1)N1CCOC(Cn2cccn2)C1 (stereo not shown) [CBK305319] | 101
49 | CCN(CC)CCN(C(=O)c1cnn(C)c1C)C1CCS(=O)(=O)C1 (stereo not shown) [CBK305321] | 89.1
50 | CSC1CCC(N(C)C(=O)NCCc2cn3cccc(C)c3n2)C1 (stereo not shown) [CBK305324] | 84.5
51 | CC(C)N(Cc1cnn(C)c1)C(=O)c1cc(C2CC2)nc2ccccc12 [CBK305325] | 103
52 | CCc1nc(CN(C)C2CCN(CC(=O)NCc3ccco3)C2)no1 (stereo not shown) [CBK305328] | 111
53 | CC(C)c1nc(CC(=O)N2CCOC(c3ccc(F)cc3)C2)cs1 (stereo not shown) [CBK305334] | 93.9
54 | CN(C(=O)CN1CCOC(Cn2cccn2)C1)C1(C#N)CCCCC1 (stereo not shown) [CBK305335] | 97.3
55 | CC(C(=O)NC1(C#N)CCCCC1)N1CCOC(Cn2cccn2)C1 (stereo not shown) [CBK305337] | 88.9
56 | COCCn1nc(C(=O)N(C)Cc2nc3ccccc3s2)ccc1=O [CBK305338] | 91.8
57 | Cc1cc(C)n(CC(C)CNC(=O)Cc2csc(C(C)(C)C)n2)n1 (stereo not shown) [CBK305340] | 96.1
58 | Cc1csc(N2CCN(C(=O)CCc3nc(C(C)C)no3)CC2)n1 [CBK305341] | 99.4
59 | Cc1cc(C)n(CC(C)NC(=O)N2CCC(Oc3cccnc3)C2)n1 (stereo not shown) [CBK305342] | 92.1
60 | Cc1cc(C)n(CC2CN(CC(=O)NCc3ccccn3)CCO2)n1 (stereo not shown) [CBK305344] | 107
61 | Cn1cc(CN2CCCN(C(=O)CCCc3ccccn3)CC2)cn1 [CBK305347] | 87.3
62 | Cc1nnnn1-c1cc(NC(=O)NCCCn2ccnc2)ccc1F [CBK305349] | 92.1
63 | CCN(CC)C(=O)c1cccc(NC(=O)Cc2cn3ccsc3n2)c1 [CBK305353] | 85.6

Row | Compound | viability at 28.5 h, 10 µM [%]
64 | CN(Cc1ccc(O)cc1)C(=O)NC1CCCc2c1cnn2CCO (stereo not shown) [CBK305354] | 86.3
65 | Cc1ccc(OCc2nc(C)c(C(=O)N3CCCC(C)C3)s2)cc1 (stereo not shown) [CBK305356] | 94.3
66 | CCc1cnc(CN(C)C2CCN(Cc3cccc(C(N)=O)c3)C2)o1 (stereo not shown) [CBK305357] | 90.5
67 | CC(C(=O)NC1(C#N)CCCCC1)N1CCOC(Cn2cncn2)C1 (stereo not shown) [CBK305359] | 101
68 | CC(C)c1cccc(-n2cc(O)c(C(=O)NCCCn3cccn3)n2)c1 [CBK305360] | 113
69 | NC(=O)c1cc(C2CCCN(CC(=O)NCc3cccs3)C2)n[nH]1 (stereo not shown) [CBK305361] | 86.6
70 | Cc1nc(CN2CCCN(C(=O)c3cccc(C#N)c3)CC2)cs1 [CBK305363] | 83.6
71 | COc1ccc(CN2CCCN(C(=O)c3ccnc(Cl)c3)CC2)cc1 [CBK305364] | 85.4
72 | CN(Cc1ccncc1)C(=O)c1cccc(S(=O)(=O)NCC2CC2)c1 [CBK305365] | 95.6
73 | COCCN(Cc1cn2cccc(C(=O)OC)c2n1)Cc1ccco1 [CBK305366] | 97.8
74 | Cc1cc(N2CCN(C(=O)CCc3ccco3)CC2)nc(C(C)C)n1 [CBK305367] | 106
75 | Cn1cc(CN2CCCN(C(=O)c3ccc4ccccc4n3)CC2)cn1 [CBK305369] | 102
76 | COc1ccc(CCNC(=O)CN2CCCC2c2cnn(C)c2)cc1 (stereo not shown) [CBK305371] | 84.2
77 | CCn1cc(CN2CCCN(C(=O)c3cccn(C)c3=O)CC2)cn1 [CBK305375] | 106
78 | COc1cccc(C(=O)NCCC(=O)N2CCc3sccc3C2)c1 [CBK305376] | 108
79 | CC(=O)NC(CC(=O)N1CCc2sccc2C1C)c1ccc(C)cc1 (stereo not shown) [CBK305378] | 89.2
80 | CCN(Cc1ccccn1)C(=O)NC(C)c1cccc(NC(C)=O)c1 (stereo not shown) [CBK305380] | 92.9
81 | Cc1nc(C2CN(Cc3cc4ccccc4nc3Cl)CCO2)no1 (stereo not shown) [CBK305381] | 96.5
82 | O=c1n(CCCNCc2ccc(Cl)cc2Cl)nc2n1CCCC2 [CBK305382] | 97.2
